We go through two compounds from patent US4619943A, “Neolignans of Saururus cernuus L and analogues thereof” (priority 1984, dated 1986).

Assay type in all cases: in vivo
A short description of data set [1]: Antiamphetamine activity (method of Weissman et al., mice instead of rats). The conditions noted are these: mice. The method, then:
Neuroleptic drugs are said to bind to postsynaptic dopamine receptors in the brain, thereby blocking dopaminergic transmission. […] Based on this, an assay for possible neuroleptic activity was developed and is commonly used. […] 151, 339 (1966)), except that mice were used instead of rats. A comparison under the same conditions was also made of the antiamphetamine activity of a standard neuroleptic drug, haloperidol, which gave an ED50 value of 0.5 mg/Kg (Table 2).

The test system of another data set is Pimephales promelas. Description: Acute toxicity to fish. The note with it: for % Mortality, Avg / % Mortality, single replicates (1 to 6): 2 hours. Here is the method:
Many compounds having insecticidal activity also show toxicity to fish. For example, rotenoids, pyrethrins, and DDT have significant toxicity to fish. For this reason, fish have been used frequently to indicate potential insecticidal activity. The present compounds were tested for acute toxicity to fish by the method described in "Methods For Acute Toxicity Tests With Fish, Macro-Invertebrates and Amphibians", EPA 660/3-75-009, Committee on Methods for Toxicity Tests With Aquatic Organisms, Environmental Protection Agency, Corvallis, OR, 1975.
The fish, commonly known as Missouri minnows or fat heads (Pimephales promelas, family, cyprinidae) were purchased from a local hatchery and equilibrated to the new surroundings for 24 hours. They were kept in deionized water, previously adjusted to pH 6.5 with phosphate buffer at 23° C. Sufficient oxygen was provided, and the fish were deprived of food during the test period.
Groups of six fish were placed in containers with different concentrations of the test compound. The percent mortality was recorded every 30 minutes. The LC 50 values (mg/L) and 95% confidence limits were determined from the percent mortality data after 2 hours of exposure from 6 separate replicates using the method of Lichfield and Wiloxon [(J. Pharmacology and Exp. Therepeutics, 96, 99-113 (1949))].

Data set [2] relates to cabbage looper (Trichoplusia ni [Hubner]). Kind of data set: Insecticidal activity against cabbage looper. The conditions noted are these: both application rates, 1000 and 500 ppm, 14 days. Here is the method: (§1) The present compounds were tested for insecticidal activity against cabbage looper (Trichoplusia ni [Hubner]), and southern armyworm (Spodoptera eridania) at application rates of 1000 and 500 ppm. The tests were conducted in petri dishes containing a solid food source in which the test compounds had been incorporated. The petri dishes containing the treated food source were infested with second instar larvae of southern armyworms or cabbage loopers. Ten larvae per replicate and two replicates per test rate were used. Mortality data were taken 14 days after infestation.

Data set [3] relates to southern armyworm (Spodoptera eridania). Description: Insecticidal activity against southern armyworm. The conditions noted are these: both application rates, 1000 and 500 ppm, 14 days. The method, then: as §1
Data set [4] has as its system mosquito larvae (Aedes aegypti). Kind of data set: Mosquito larvae test. The note with it: 24 hours. Here is the method:
Similarly, in a test using mosquito larvae (Aedes aegypti) as the insect test species, SC-7 gave 15% mortality and SC-8 gave 93% mortality at an application rate of 100 ppm. In this test, one ml of a solution of 1000 ppm of the test compound in 10% acetone - 90% water was added to 9 ml of water in a culture tube. Ten mosquito larvae were added, and mortality readings were taken 24 hours later.

In a further data set the test system is mice. Kind of data set: Neuroleptic / CNS-depressant activity in experimental animals (general statements).

Converted amounts (≈) assume the structure as drawn. “And” between values parts separate entries of the source, which are not always exact repeats. Identical values can stand only once.

Regarding `O=C(CCCN1CCC(O)(c2ccc(Cl)cc2)CC1)c1ccc(F)cc1` [Haloperidol, haloperidol, reference compound], in data set [1] (Mus musculus, inhibition of amphetamine-induced agitation, stereotypy, body-hydration), the ED50 – broadly, the dose that gives a 50% effect, or the effect in half of the subjects – was 0.5 mg/kg. For the same compound, the “% Inhibition (antiamphetamine activity)” value in data set [1] (dose 0.05 mg/Kg) was 10%; in data set [1] (dose 0.1 mg/Kg), 20%; in data set [1] (dose 0.5 mg/Kg), 40%; in data set [1] (dose 0.75 mg/Kg), 50%; in data set [1] (dose 1.0 mg/Kg) it was 60%; in data set [1] (dose 1.3 mg/Kg), 70%. The “% Inhibition (antiamphetamine activity)” value in data set [1] (dose 1.8 mg/Kg) is reported as 90%.

For `COc1ccc(C(O)C(C)Oc2ccc([C@@H]3O[C@@H](c4ccc(OC(C)C(O)c5ccc6c(c5)OCO6)c(OC)c4)[C@@H](C)[C@@H]3C)cc2OC)cc1OC` (stereo partly drawn) [SC-7, 2α-[3-methoxy-4-{threo-3-hydroxy-3-(3,4-dimethoxyphenyl)}isopropoxyphenyl]-5β-[3-methoxy-4-{threo-3-hydroxy-3-(3,4-methylenedioxyphenyl)}isopropoxyphenyl]-3α,4β-dimethyltetrahydrofuran], the “% Mortality, Avg” value in the data set with Pimephales promelas (0.03 mg/L) was 6%; in the data set with Pimephales promelas (0.06 mg/L), 38%; with Pimephales promelas (0.09 mg/L) it was 41%; in the data set on Pimephales promelas (0.13 mg/L) it was 58%; in the data set on Pimephales promelas (0.25 mg/L) it was 86%; in the data set with Pimephales promelas (0.5 mg/L) it was 100%. In addition, the “% Mortality, single replicates (1 to 6)” value is 0% (4×) and 17% (2×) with Pimephales promelas (0.03 mg/L, 120 min); 33% (4×) and 17% (2×) in the data set with Pimephales promelas (0.06 mg/L, 120 min); 50% and 33% (5×) in the data set with Pimephales promelas (0.09 mg/L, 120 min); 83% and 67% and 50% (4×) with Pimephales promelas (0.13 mg/L, 120 min); 100% (2×) and 83% (3×) and 67% in the data set on Pimephales promelas (0.25 mg/L, 120 min); 100% with Pimephales promelas (0.5 mg/L). In addition, the LC50 (as a rule, the concentration lethal to half of the exposed cells or organisms) with Pimephales promelas (2 hours of exposure, pH 6.5, 23° C) is 0.115 µg/mL (≈ 0.16 µM). The “insecticidal activity, cabbage looper” value in data set [2] was “essentially inactive”. For the same compound, in data set [3], the “insecticidal activity, southern armyworm” value was “essentially inactive”. In addition, in data set [4], the mortality (in general, the share of the test organisms that died) at 100 ppm turned out to be 15%. In the data set on mice (experimental animals / mice), the CNS-depressant activity result is given as “activity similar to SC-8”. Further, the neuroleptic activity result with mice (mouse, in vivo) was “neuroleptically active”.
